Test results as given in ChEMBL document CHEMBL1134195, “Synthesis of analogues of the O-beta-D-ribofuranosyl nucleoside moiety of liposidomycins. Part 2: role of the hydroxyl groups upon the inhibition of MraY” (Bioorg Med Chem Lett, 2001).

Assay: Inhibitory activity against translocase (Mra Y) obtained from bacteria.

Structure (SMILES) | IC50
NC[C@H]1O[C@@H](OC[C@@H]2CC[C@H](n3ccc(=O)[nH]c3=O)O2)[C@H](O)[C@@H]1O | 120 µM
NC[C@H]1O[C@@H](OC[C@@H]2C[C@@H](O)[C@H](n3ccc(=O)[nH]c3=O)O2)[C@H](O)[C@@H]1O | 10 µM
NC[C@H]1O[C@@H](OC[C@H]2O[C@@H](n3ccc(=O)[nH]c3=O)[C@H](O)[C@@H]2O)[C@H](O)[C@@H]1O | 50 µM
NC[C@H]1O[C@@H](O[C@@H](CO)[C@H]2O[C@@H](n3ccc(=O)[nH]c3=O)[C@H](O)[C@@H]2O)[C@H](O)[C@@H]1O | 5 µM
NC[C@H]1O[C@@H](OC[C@H]2O[C@@H](n3ccc(=O)[nH]c3=O)C[C@@H]2O)[C@H](O)[C@@H]1O | 80 µM
NC[C@@H]1C[C@@H](O)[C@H](OC[C@H]2O[C@@H](n3ccc(=O)[nH]c3=O)[C@H](O)[C@@H]2O)O1 | > 1000 µM
NC[C@H]1O[C@@H](OC[C@H]2O[C@@H](n3ccc(=O)[nH]c3=O)[C@H](O)[C@@H]2O)C[C@@H]1O | 115 µM
